# Earlier results in PubChem BioAssay AID1259409 (Chemical Carcinogenesis Research Information System (CCRIS), 2018).
# Tested on: rodent chemically induced tumor inhibition, incidence and multiplicity
# Assay: CCRIS tumor inhibitor studies
# Description: The CCRIS database contains chemical records with carcinogenicity, mutagenicity, tumor promotion, and tumor inhibition test results. It was developed by the National Cancer Institute (NCI). Data are derived from studies cited in primary journals, current awareness tools, NCI reports, and other sources. Test results have been reviewed by experts in carcinogenesis and mutagenesis.
# CCRIS provides historical information from the years 1985 - 2011. It is no longer updated.
# This is an archive assay for CCRIS tumor inhibitor studies.
compound,measurement,setting,value
CCCCCCCCCCCCOC(=O)c1cc(O)c(O)c(O)c1,"tumour outcome (control, treated, inhibition, significance)","Carcinogen: 7,12-DIMETHYLBENZ[A]ANTHRACENE, 57-97-6, Dose [Inhibitor]: 0, 10 UMOL IN 0.4 ML ACETONE 20 MIN PRIOR TO EACH PROMOTER DOSE (STUDY DURATION: 47 WK), Route [Inhibitor]: DERMAL, Species: MOUSE, Strain/Sex: CF-1/FEMALE, Target Tissue: Type of Lesion: SKIN: CARCINOMA, Dose [Carcinogen]: 100 NMOL IN 0.2 ML ACETONE ONCE","67%, 17%, 75%, not calculated"
same,"tumour outcome (control, treated, inhibition, significance)","Carcinogen: 7,12-DIMETHYLBENZ[A]ANTHRACENE, 57-97-6, Dose [Inhibitor]: 0, 10 UMOL IN 0.4 ML ACETONE 20 MIN PRIOR TO EACH PROMOTER DOSE (STUDY DURATION: 47 WK), Route [Inhibitor]: DERMAL, Species: MOUSE, Strain/Sex: CF-1/FEMALE, Target Tissue: Type of Lesion: SKIN: PAPILLOMA, Dose [Carcinogen]: 100 NMOL IN 0.2 ML ACETONE ONCE","94%, 90%, 4%, not calculated"
C[C@@]12CCc3occc3[C@H]1CC[C@@]13C[C@@H](CC[C@H]12)[C@@](O)(CO)C3,"tumour outcome (control, treated, inhibition, significance)","Carcinogen: 7,12-DIMETHYLBENZ[A]ANTHRACENE, 57-97-6, Dose [Inhibitor]: 0, 0.2 G/KG OF DIET OF 50:50 MIXTURE OF KAHWEOL AND CAFESTOL FOR 14 WK BEGINNING 1 WK PRIOR TO CARCINOGEN TREATMENT (STU, Route [Inhibitor]: ORAL, Species: HAMSTER, Strain/Sex: SYRIAN/FEMALE, Target Tissue: Type of Lesion: BUCCAL POUCH: TUMOR, Dose [Carcinogen]: 0.5% SOLUTION IN MINERAL OIL PAINTED ON LEFT BUCCAL POUCH 3/WK FOR 13 WK, Promoter: NONE USED","14/14 (100%), 14/14 (100%), 0%, not significant"
same,"tumour outcome (control, treated, inhibition, significance)","Carcinogen: 7,12-DIMETHYLBENZ[A]ANTHRACENE, 57-97-6, Dose [Inhibitor]: 0, 2 G/KG OF DIET OF 50:50 MIXTURE OF KAHWEOL AND CAFESTOL FOR 14 WK BEGINNING 1 WK PRIOR TO CARCINOGEN TREATMENT (STUDY, Route [Inhibitor]: ORAL, Species: HAMSTER, Strain/Sex: SYRIAN/FEMALE, Target Tissue: Type of Lesion: BUCCAL POUCH: TUMOR, Dose [Carcinogen]: 0.5% SOLUTION IN MINERAL OIL PAINTED ON LEFT BUCCAL POUCH 3/WK FOR 13 WK, Promoter: NONE USED","14/14 (100%), 14/15 (93%), 7%, not significant"
CC(C)(c1ccc(O)cc1)c1ccc(O)cc1,outcome,"Carcinogen: N-NITROSOBIS(2-HYDROXYPROPYL)AMINE, 53609-64-6, Dose [Inhibitor]: 0, 10000 PPM IN DIET FOR 27 WK BEGINNING 9 WK POST CARCINOGEN TREATMENT (STUDY DURATION: 37 WK), Route [Inhibitor]: ORAL, Species: RAT, Strain/Sex: F344/FEMALE, Target Tissue: Type of Lesion: THYROID GLAND: ADENOMA, Dose [Carcinogen]: 2000 MG/KG BW 1 WK POST BILATERAL OVARIECTOMY, Promoter: SULFADIMETHOXINE, 122-11-2","0/12 (0%), 0/15 (0%), 0%, not significant"
same,"tumour outcome (control, treated, inhibition, significance)","Carcinogen: N-NITROSOBIS(2-HYDROXYPROPYL)AMINE, 53609-64-6, Dose [Inhibitor]: 0, 10000 PPM IN DIET FOR 27 WK BEGINNING 9 WK POST CARCINOGEN TREATMENT (STUDY DURATION: 37 WK), Route [Inhibitor]: ORAL, Species: RAT, Strain/Sex: F344/FEMALE, Target Tissue: Type of Lesion: THYROID GLAND: CARCINOMA, Dose [Carcinogen]: 2000 MG/KG BW 1 WK POST BILATERAL OVARIECTOMY, Promoter: SULFADIMETHOXINE, 122-11-2","10/12 (83%), 4/15 (27%), 67%, p<0.01"
CCC(=O)Oc1ccc2c(c1)CC[C@@H]1[C@@H]2CC[C@]2(C)[C@@H](OC(=O)CC)CC[C@@H]12,"tumour outcome (control, treated, inhibition, significance)","Carcinogen: 1,2-DIMETHYLHYDRAZINE, 540-73-8, Dose [Inhibitor]: 0, 0.1 ML OF A SOLUTION IN OLIVE OIL 1/WK FOR 30 WK ADMINISTERED 1 DAY PRIOR TO EACH CARCINOGEN DOSE AND CONTINUING FOR, Route [Inhibitor]: SUBCUTANEOUS, Species: MOUSE, Strain/Sex: C3H/FEMALE, Target Tissue: Type of Lesion: CLITORAL GLAND: TUMORS, Dose [Carcinogen]: 8 MG/KG BW 1/WK FOR 20 WK, Promoter: NONE USED","23/36 (64%), 7/37 (19%), 70%, p=0.026"
same,"tumour outcome (control, treated, inhibition, significance)","Carcinogen: 7,12-DIMETHYLBENZ[A]ANTHRACENE, 57-97-6, Dose [Inhibitor]: 0, 1 MG/100 G BW 1/WK FOR 150 D BEGINNING POST CARCINOGEN TREATMENT (STUDY DURATION: 150 D), Route [Inhibitor]: SUBCUTANEOUS, Species: RAT, Strain/Sex: WISTAR/FEMALE, Target Tissue: Type of Lesion: MAMMARY GLAND: ADENOCARCINOMA, Dose [Carcinogen]: 4 MG IN 0.1 ML OF SESAME OIL INJECTED ONCE INTO THE EXPOSED MAMMARY TISSUE OF HYPERPROLACTINEMIC RATS ON DAY 73 OF AGE, Promoter: NONE USED","8/11 (73%), 1/7 (14%), 81%, p<0.05"
Cc1[nH]cnc1CSCCN=C(NC#N)N(C)N=O,"tumour outcome (control, treated, inhibition, significance)","Carcinogen: 7,12-DIMETHYLBENZ[A]ANTHRACENE, 57-97-6, Dose [Inhibitor]: 1 G/L IN DRINKING WATER AD LIBITUM BEGINNING 1 WK POST PROMOTER DOSE FOR DURATION OF STUDY (STUDY DURATION: 52 WK), Route [Inhibitor]: ORAL, Species: MOUSE, Strain/Sex: SENCAR/FEMALE, Target Tissue: Type of Lesion: SKIN: CARCINOMA, Dose [Carcinogen]: 120 UG IN 0.2 ML ACETONE ONCE, Promoter: 12-O-TETRADECANOYLPHORBOL-13-ACETATE, 16561-29-8","24/30 (80%), 18/25 (72%), 10%, not calculated"
same,"tumour outcome (control, treated, inhibition, significance)","Carcinogen: 7,12-DIMETHYLBENZ[A]ANTHRACENE, 57-97-6, Dose [Inhibitor]: 1 G/L IN DRINKING WATER AD LIBITUM BEGINNING 1 WK POST PROMOTER DOSE FOR DURATION OF STUDY (STUDY DURATION: 52 WK), Route [Inhibitor]: ORAL, Species: MOUSE, Strain/Sex: SENCAR/FEMALE, Target Tissue: Type of Lesion: SKIN: KERATOACANTHOMA, Dose [Carcinogen]: 120 UG IN 0.2 ML ACETONE ONCE, Promoter: 12-O-TETRADECANOYLPHORBOL-13-ACETATE, 16561-29-8","16/30 (53%), 8/25 (32%), 40%, p<0.05"
same,"tumour outcome (control, treated, inhibition, significance)","Carcinogen: 7,12-DIMETHYLBENZ[A]ANTHRACENE, 57-97-6, Dose [Inhibitor]: 1 MG/WK BEGINNING 1 WK POST FIRST PROMOTER DOSE FOR DURATION OF STUDY (STUDY DURATION: 52 WK), Route [Inhibitor]: DERMAL, Species: MOUSE, Strain/Sex: SENCAR/FEMALE, Target Tissue: Type of Lesion: SKIN: CARCINOMA, Dose [Carcinogen]: 120 UG IN 0.2 ML ACETONE ONCE, Promoter: 12-O-TETRADECANOYLPHORBOL-13-ACETATE, 16561-29-8","24/30 (80%), 23/30 (77%), 4%, not calculated"
same,"tumour outcome (control, treated, inhibition, significance)","Carcinogen: 7,12-DIMETHYLBENZ[A]ANTHRACENE, 57-97-6, Dose [Inhibitor]: 1 MG/WK BEGINNING 1 WK POST FIRST PROMOTER DOSE FOR DURATION OF STUDY (STUDY DURATION: 52 WK), Route [Inhibitor]: DERMAL, Species: MOUSE, Strain/Sex: SENCAR/FEMALE, Target Tissue: Type of Lesion: SKIN: KERATOACANTHOMA, Dose [Carcinogen]: 120 UG IN 0.2 ML ACETONE ONCE, Promoter: 12-O-TETRADECANOYLPHORBOL-13-ACETATE, 16561-29-8","16/30 (53%), 15/30 (50%), 6%, not calculated"
same,"tumour outcome (control, treated, inhibition, significance)","Carcinogen: 7,12-DIMETHYLBENZ[A]ANTHRACENE, 57-97-6, Dose [Inhibitor]: 1130 PPM IN DRINKING WATER BEGINNING 1 WK POST LAST CARCINOGEN DOSE (STUDY DURATION: 14 MO), Route [Inhibitor]: ORAL, Species: MOUSE, Strain/Sex: B6D2F1/FEMALE, Target Tissue: Type of Lesion: LUNG: TUMOR, Dose [Carcinogen]: 1 MG IN OLIVE OIL 1/WK FOR 4 WK, Promoter: NONE USED","11/27 (41%), 13/23 (56%), -37%, not calculated"
same,"tumour outcome (control, treated, inhibition, significance)","Carcinogen: 7,12-DIMETHYLBENZ[A]ANTHRACENE, 57-97-6, Dose [Inhibitor]: 1130 PPM IN DRINKING WATER BEGINNING 1 WK POST LAST CARCINOGEN DOSE (STUDY DURATION: 14 MO), Route [Inhibitor]: ORAL, Species: MOUSE, Strain/Sex: B6D2F1/FEMALE, Target Tissue: Type of Lesion: LYMPHOID TISSUE: NEOPLASMS, Dose [Carcinogen]: 1 MG IN OLIVE OIL 1/WK FOR 4 WK, Promoter: NONE USE","12/29 (41%), 12/28 (43%), -4%, not calculated"
same,"tumour outcome (control, treated, inhibition, significance)","Carcinogen: 7,12-DIMETHYLBENZ[A]ANTHRACENE, 57-97-6, Dose [Inhibitor]: 1130 PPM IN DRINKING WATER BEGINNING 1 WK POST LAST CARCINOGEN DOSE (STUDY DURATION: 14 MO), Route [Inhibitor]: ORAL, Species: MOUSE, Strain/Sex: B6D2F1/FEMALE, Target Tissue: Type of Lesion: MAMMARY GLAND: TUMOR, Dose [Carcinogen]: 1 MG IN OLIVE OIL 1/WK FOR 4 WK, Promoter: NONE USED","7/29 (24%), 7/28 (25%), -4%, not calculated"
same,"tumour outcome (control, treated, inhibition, significance)","Carcinogen: URETHANE, 51-79-6, Dose [Inhibitor]: 1000 PPM IN DRINKING WATER BEGINNING 10 WK POST LAST CARCINOGEN DOSE (STUDY DURATION: 14 MO), Route [Inhibitor]: ORAL, Species: MOUSE, Strain/Sex: BALB/MALE, Target Tissue: Type of Lesion: LUNG: TUMOR, Dose [Carcinogen]: 1 G/KG 1/WK FOR 2 WK, Promoter: NONE USED","20/20 (100%), 17/17 (100%), 0%, not calculated"
same,"tumour outcome (control, treated, inhibition, significance)","Carcinogen: URETHANE, 51-79-6, Dose [Inhibitor]: 1800 PPM IN DRINKING WATER BEGINNING 10 WK POST LAST CARCINOGEN DOSE (STUDY DURATION: 14 MO), Route [Inhibitor]: ORAL, Species: MOUSE, Strain/Sex: BALB/MALE, Target Tissue: Type of Lesion: LUNG: TUMOR, Dose [Carcinogen]: 1 G/KG 1/WK FOR 2 WK, Promoter: NONE USED","20/20 (100%), 17/17 (100%), 0%, not calculated"
